Measured values taken from PMC9469100, “Turning Nonselective Inhibitors of Type I Protein Arginine Methyltransferases into Potent and Selective Inhibitors of Protein Arginine Methyltransferase 4 through a Deconstruction–Reconstruction and Fragment-Growing Approach” (Journal of Medicinal Chemistry, 2022).
Where two headings read alike, the source gives them in different places.

Tests used:
PRMT5/MEP50 complex = PRMT5/MEP50 complex (Homo sapiens, UniProt O14744); assay: Radioisotope-based filter-binding (HotSpot) assay, PRMT5
Sequence of PRMT5/MEP50 complex (O14744 2-637): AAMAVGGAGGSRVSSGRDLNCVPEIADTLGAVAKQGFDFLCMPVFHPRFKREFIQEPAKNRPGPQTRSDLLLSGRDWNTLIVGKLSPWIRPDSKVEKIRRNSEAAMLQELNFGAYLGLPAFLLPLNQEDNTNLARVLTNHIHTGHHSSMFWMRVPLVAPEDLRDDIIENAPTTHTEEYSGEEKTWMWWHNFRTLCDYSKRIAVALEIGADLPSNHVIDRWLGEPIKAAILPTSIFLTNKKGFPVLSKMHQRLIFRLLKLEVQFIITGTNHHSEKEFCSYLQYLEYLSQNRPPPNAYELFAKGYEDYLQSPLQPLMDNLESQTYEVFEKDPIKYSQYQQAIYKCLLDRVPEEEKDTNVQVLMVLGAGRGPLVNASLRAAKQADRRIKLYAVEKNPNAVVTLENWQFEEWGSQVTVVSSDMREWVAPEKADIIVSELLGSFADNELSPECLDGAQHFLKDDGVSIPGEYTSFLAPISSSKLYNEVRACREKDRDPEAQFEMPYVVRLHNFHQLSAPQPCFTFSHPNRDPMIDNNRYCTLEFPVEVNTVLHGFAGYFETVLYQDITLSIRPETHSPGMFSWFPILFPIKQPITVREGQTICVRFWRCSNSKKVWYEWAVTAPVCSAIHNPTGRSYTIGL
Sequence of PRMT5/MEP50 complex (Q9BQA1 2-342 partner limits assumed): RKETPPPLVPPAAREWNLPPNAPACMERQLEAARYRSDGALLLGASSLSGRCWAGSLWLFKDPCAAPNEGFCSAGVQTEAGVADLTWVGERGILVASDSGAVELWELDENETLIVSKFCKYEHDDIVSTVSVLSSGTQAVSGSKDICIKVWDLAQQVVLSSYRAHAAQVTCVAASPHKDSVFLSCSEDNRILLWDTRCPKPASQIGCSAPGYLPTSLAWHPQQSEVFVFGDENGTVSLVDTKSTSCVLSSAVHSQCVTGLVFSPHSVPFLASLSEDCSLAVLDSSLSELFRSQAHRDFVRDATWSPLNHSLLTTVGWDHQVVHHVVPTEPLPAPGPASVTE
Method: (§1) Then, ^3H-SAM (final concentration 1 μM) was delivered into the reaction mixture to initiate the reaction. After incubation for 60 min at 30 °C, the reaction mixture was delivered to filter paper for detection (as assessed by scintillation). Data were analyzed using Excel and GraphPad Prism 6.0 software (GraphPad Software Inc., San Diego, CA) for IC50 curve fits using sigmoidal dose vs response-variable slope (four parameters) equations.

PRMT3 = PRMT3 (Homo sapiens, UniProt O60678); assay: Radioisotope-based filter-binding (HotSpot) assay, PRMT3; conditions: radioisotope-based filter assay
Sequence of PRMT3 (O60678 2-531): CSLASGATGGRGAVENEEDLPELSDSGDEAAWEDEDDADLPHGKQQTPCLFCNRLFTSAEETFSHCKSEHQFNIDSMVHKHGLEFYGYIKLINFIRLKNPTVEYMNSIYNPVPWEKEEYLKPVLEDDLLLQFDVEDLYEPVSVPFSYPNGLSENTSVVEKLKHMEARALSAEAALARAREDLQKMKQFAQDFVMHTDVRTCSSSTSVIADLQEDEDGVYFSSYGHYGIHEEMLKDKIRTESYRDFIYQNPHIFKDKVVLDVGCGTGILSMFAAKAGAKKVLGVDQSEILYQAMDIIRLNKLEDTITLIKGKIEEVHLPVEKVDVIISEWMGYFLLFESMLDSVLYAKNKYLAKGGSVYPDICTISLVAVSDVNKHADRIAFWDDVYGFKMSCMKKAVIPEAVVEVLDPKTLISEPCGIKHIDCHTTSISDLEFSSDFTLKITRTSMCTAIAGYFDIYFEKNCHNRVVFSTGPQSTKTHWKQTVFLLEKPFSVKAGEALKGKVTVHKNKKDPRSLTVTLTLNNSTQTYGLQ
Method: as §1

ΔN(1–60)-PRMT8 = ΔN(1–60)-PRMT8 (Homo sapiens, UniProt Q9NR22); assay: Radioisotope-based filter-binding (HotSpot) assay, PRMT8
Sequence of ΔN(1–60)-PRMT8 (Q9NR22 61-394, stated change not applied): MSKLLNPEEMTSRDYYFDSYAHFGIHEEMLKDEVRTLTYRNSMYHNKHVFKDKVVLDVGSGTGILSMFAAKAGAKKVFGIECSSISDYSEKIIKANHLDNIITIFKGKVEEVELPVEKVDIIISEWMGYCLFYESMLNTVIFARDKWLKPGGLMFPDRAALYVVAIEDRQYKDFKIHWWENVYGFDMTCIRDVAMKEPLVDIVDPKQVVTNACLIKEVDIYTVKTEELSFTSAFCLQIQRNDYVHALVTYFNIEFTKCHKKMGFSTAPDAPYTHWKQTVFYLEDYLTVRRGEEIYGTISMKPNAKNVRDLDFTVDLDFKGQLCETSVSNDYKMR
Method: as §1

PRMT4 = biological target: T1, PRMT4 (Homo sapiens, UniProt Q86X55); assay: Radioisotope-based filter-binding (HotSpot) assay, PRMT4; conditions: for LE: ligand efficiency for PRMT4 calculated from IC50 as a surrogate for KD; for selectivity index for PRMT4 vs other PRMTs: PRMT1: ratio IC50 PRMT1 / IC50 PRMT4, rounded to nearest integer; for selectivity index for PRMT4 vs other PRMTs: PRMT3: ratio IC50 PRMT3 / IC50 PRMT4; for selectivity index for PRMT4 vs other PRMTs: PRMT5: ratio IC50 PRMT5 / IC50 PRMT4; for selectivity index for PRMT4 vs other PRMTs: PRMT6: ratio IC50 PRMT6 / IC50 PRMT4; for selectivity index for PRMT4 vs other PRMTs: PRMT7: ratio IC50 PRMT7 / IC50 PRMT4; for selectivity index for PRMT4 vs other PRMTs: PRMT8: ratio IC50 PRMT8 / IC50 PRMT4; for IC50: radioisotope-based filter assay; for SI PRMT1 (Figure 5 heatmap): selectivity index for PRMT4 over PRMT1; for SI PRMT3 (Figure 5 heatmap): selectivity index for PRMT4 over PRMT3; for SI PRMT5 (Figure 5 heatmap): selectivity index for PRMT4 over PRMT5; for SI PRMT6 (Figure 5 heatmap): selectivity index for PRMT4 over PRMT6; for SI PRMT7 (Figure 5 heatmap): selectivity index for PRMT4 over PRMT7; for SI PRMT8 (Figure 5 heatmap): selectivity index for PRMT4 over PRMT8
T1 sequence (Q86X55 2-608): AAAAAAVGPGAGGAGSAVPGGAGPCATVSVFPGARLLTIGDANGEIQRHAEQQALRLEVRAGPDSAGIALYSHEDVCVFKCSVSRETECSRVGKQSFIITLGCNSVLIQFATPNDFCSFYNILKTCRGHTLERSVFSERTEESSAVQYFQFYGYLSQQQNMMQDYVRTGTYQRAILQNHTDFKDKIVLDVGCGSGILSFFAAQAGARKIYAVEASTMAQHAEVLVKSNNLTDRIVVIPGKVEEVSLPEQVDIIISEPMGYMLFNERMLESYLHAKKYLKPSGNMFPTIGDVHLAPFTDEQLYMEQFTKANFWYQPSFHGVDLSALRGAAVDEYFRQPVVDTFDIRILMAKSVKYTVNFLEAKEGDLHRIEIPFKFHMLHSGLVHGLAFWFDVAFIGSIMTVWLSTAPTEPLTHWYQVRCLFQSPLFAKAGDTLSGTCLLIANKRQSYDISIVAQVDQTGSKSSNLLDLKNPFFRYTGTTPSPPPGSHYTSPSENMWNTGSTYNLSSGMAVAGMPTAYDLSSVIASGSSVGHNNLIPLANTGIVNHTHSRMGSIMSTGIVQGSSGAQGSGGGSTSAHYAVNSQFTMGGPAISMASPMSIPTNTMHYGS
Method: as §1

PRMT7 = biological target: T2, PRMT7 (Homo sapiens, UniProt Q9NVM4); assay: Radioisotope-based filter-binding (HotSpot) assay, PRMT7; conditions: read-out: IC50 (μM) PRMT7; radioisotope-based filter assay; 5 μM GST-GAR; 1 μM 3H-SAM
T2 sequence (Q9NVM4 2-692): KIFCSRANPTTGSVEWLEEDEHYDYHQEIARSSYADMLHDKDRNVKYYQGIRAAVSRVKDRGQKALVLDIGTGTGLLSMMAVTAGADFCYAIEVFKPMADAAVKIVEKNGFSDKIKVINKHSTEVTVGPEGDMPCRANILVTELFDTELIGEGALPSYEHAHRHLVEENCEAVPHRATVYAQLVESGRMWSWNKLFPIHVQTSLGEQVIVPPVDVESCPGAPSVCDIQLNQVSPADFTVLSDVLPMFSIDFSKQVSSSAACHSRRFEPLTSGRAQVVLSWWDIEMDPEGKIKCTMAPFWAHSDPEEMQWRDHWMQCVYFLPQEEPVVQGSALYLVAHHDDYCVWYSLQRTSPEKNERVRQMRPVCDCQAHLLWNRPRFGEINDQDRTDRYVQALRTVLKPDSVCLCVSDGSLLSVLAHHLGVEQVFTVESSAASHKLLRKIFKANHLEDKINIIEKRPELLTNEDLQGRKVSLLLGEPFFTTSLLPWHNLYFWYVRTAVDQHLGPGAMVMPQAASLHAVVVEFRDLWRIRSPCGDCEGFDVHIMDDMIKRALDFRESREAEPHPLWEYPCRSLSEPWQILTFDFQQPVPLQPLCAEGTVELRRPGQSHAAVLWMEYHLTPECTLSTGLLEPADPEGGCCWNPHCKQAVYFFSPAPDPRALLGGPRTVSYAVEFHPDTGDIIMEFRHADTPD
Method: as §1

[1] = read-out: IC50 (μM) PRMT5, radioisotope-based filter assay, 5 μM histone H2A, 1 μM 3H-SAM
[2] = read-out: IC50 (μM) PRMT3, 5 μM histone H4, 1 μM 3H-SAM
[3] = read-out: IC50 (μM) PRMT8, 5 μM histone H4, 1 μM 3H-SAM
[4] = read-out: IC50 PRMT8 (Figure 5 heatmap)
[5] = read-out: IC50 (μM) PRMT4, 5 μM histone H3, 1 μM 3H-SAM
[6] = read-out: IC50 PRMT4 (Figure 5 heatmap)
[7] = on increasing the linker between 4-hydroxy-2-naphthoate and guanidine (values equal the ratio to the IC50 of 12c)
[8] = read-out: IC50 PRMT5 (Figure 5 heatmap), radioisotope-based filter assay
[9] = read-out: IC50 PRMT3 (Figure 5 heatmap)

Row | SMILES | IC50 (PRMT5/MEP50 complex; [1]) [µM] | IC50 (PRMT3; [2]) [µM] | IC50 (ΔN(1–60)-PRMT8; [3]) [µM] | IC50 (ΔN(1–60)-PRMT8; [4]) [µM] | LE (PRMT4) | selectivity index for PRMT4 vs other PRMTs: PRMT1 (PRMT4) | selectivity index for PRMT4 vs other PRMTs: PRMT3 (PRMT4) | selectivity index for PRMT4 vs other PRMTs: PRMT5 (PRMT4) | selectivity index for PRMT4 vs other PRMTs: PRMT6 (PRMT4) | selectivity index for PRMT4 vs other PRMTs: PRMT7 (PRMT4) | selectivity index for PRMT4 vs other PRMTs: PRMT8 (PRMT4) | IC50 (PRMT4; [5]) [µM] | IC50 (PRMT4; [6]) [µM] | SI PRMT1 (Figure 5 heatmap) (PRMT4) [fold] | SI PRMT3 (Figure 5 heatmap) (PRMT4) | SI PRMT6 (Figure 5 heatmap) (PRMT4) | SI PRMT7 (Figure 5 heatmap) (PRMT4) [fold] | SI PRMT8 (Figure 5 heatmap) (PRMT4) [fold] | IC50 (PRMT7) [µM] | IC50 (PRMT3; [9]) [µM] | further results
1 | COC(=O)c1cc(O)c2cc(NC(=O)NCCCCCCCNC(=N)NC[C@H]3O[C@@H](n4cnc5c(N)ncnc54)[C@H](O)[C@@H]3O)ccc2c1 [12e, Methyl 6-(3-(7-(3-(((2R,3S,4R,5R)-5-(6-Amino-9H-purin-9-yl)-3,4-dihydroxytetrahydrofuran-2-yl)methyl)guanidino)heptyl)ureido)-4-hydroxy-2-naphthoate] | 3.38 | 12.4 | 5.84 | – | 0.20 | 15 | 70 | 19 | 202 | 4 | 33 | 0.176 | – | 15 | 70 fold | 202 fold | 4 | 33 | 0.631 | 12.4 | gain in the inhibitory activity against PRMT5 (PRMT5/MEP50 complex; [7]): 15.2 fold; IC50 (PRMT5/MEP50 complex; [8]): 3.38 µM; gain in the inhibitory activity against PRMT4 (PRMT4; [7]): 2.4 fold; SI PRMT5 (Figure 5 heatmap) (PRMT4): 19 fold
2 | COC(=O)c1cc(O)c2cc(NC(=O)NCCCCNC(=N)NC/C=C/[C@H]3O[C@@H](n4cnc5c(N)ncnc54)[C@H](O)[C@@H]3O)ccc2c1 [12h, Methyl 6-(3-(4-(3-((E)-3-((2R,3S,4R,5R)-5-(6-Amino-9H-purin-9-yl)-3,4-dihydroxytetrahydrofuran-2-yl)allyl)guanidino)butyl)ureido)-4-hydroxy-2-naphthoate] | 1.46 | 4.05 | 1.95 | 1.95 | – | – | – | – | – | – | – | 0.0032 | – | – | – | – | – | – | 1.68 | 4.04 | IC50 (PRMT5/MEP50 complex; [8]): 1.46 µM; IC50 (PRMT4; IC50 PRMT4 (Figure 5 heatmap)): 0.003 µM; gain in potency over its shorter counterpart 12b (PRMT4; PRMT4): 668 fold

Second part, led by results:

Row | IC50 (PRMT5/MEP50 complex; [1]) [µM] | IC50 (PRMT3; [2]) [µM] | IC50 (ΔN(1–60)-PRMT8; [3]) [µM] | IC50 (ΔN(1–60)-PRMT8; [4]) [µM] | LE (PRMT4) | selectivity index for PRMT4 vs other PRMTs: PRMT1 (PRMT4) | selectivity index for PRMT4 vs other PRMTs: PRMT3 (PRMT4) | selectivity index for PRMT4 vs other PRMTs: PRMT5 (PRMT4) | selectivity index for PRMT4 vs other PRMTs: PRMT6 (PRMT4) | selectivity index for PRMT4 vs other PRMTs: PRMT7 (PRMT4) | selectivity index for PRMT4 vs other PRMTs: PRMT8 (PRMT4) | IC50 (PRMT4; [5]) [µM] | IC50 (PRMT4; [6]) [µM] | SI PRMT1 (Figure 5 heatmap) (PRMT4) [fold] | SI PRMT3 (Figure 5 heatmap) (PRMT4) | SI PRMT6 (Figure 5 heatmap) (PRMT4) | SI PRMT7 (Figure 5 heatmap) (PRMT4) [fold] | SI PRMT8 (Figure 5 heatmap) (PRMT4) [fold] | IC50 (PRMT7) [µM] | IC50 (PRMT3; [9]) [µM] | SMILES | further results
3 | 51.4 | 21.3 | 5.87 | 5.87 | 0.19 | 20 | 51 | 122 | >238 | 0.52 | 14 | 0.42 | 0.421 | 20 | 51 fold | > 238 fold | 0.52 | 14 | 0.22 | – | COC(=O)c1cc(O)c2cc(NC(=O)NCCCCCNC(=N)NC[C@H]3O[C@@H](n4cnc5c(N)ncnc54)[C@H](O)[C@@H]3O)ccc2c1 [12c, Methyl 6-(3-(5-(3-(((2R,3S,4R,5R)-5-(6-Amino-9H-purin-9-yl)-3,4-dihydroxytetrahydrofuran-2-yl)methyl)guanidino)pentyl)ureido)-4-hydroxy-2-naphthoate] | IC50 (PRMT5/MEP50 complex): 5.14 µM; SI PRMT5 (Figure 5 heatmap) (PRMT4): 122 fold
4 | 0.115 | 10.5 | 6 | 6 | 0.24 | 501 | 1082 | 12 | 2340 | 23 | 619 | 0.0097 | 0.01 | 501 | 1,082 fold | 2,340 fold | 23 | 619 | 0.226 | 10.5 | COC(=O)c1cc(O)c2cc(NC(=O)NCCCCNC(=N)NCC[C@H]3O[C@@H](n4cnc5c(N)ncnc54)[C@H](O)[C@@H]3O)ccc2c1 [12f, Methyl 6-(3-(4-(3-(2-((2R,3S,4R,5R)-5-(6-Amino-9H-purin-9-yl)-3,4-dihydroxytetrahydrofuran-2-yl)ethyl)guanidino)butyl)ureido)-4-hydroxy-2-naphthoate] | –
5 | 0.778 | 13.3 | 1.41 | 1.41 | 0.24 | 214 | 1583 | 93 | 517 | 557 | 168 | 0.0084 | 0.008 | 214 | 1,583 fold | 517 fold | 557 | 168 | 4.68 | 13.2 | COC(=O)c1cc(O)c2cc(NC(=O)NCCCCNC(=N)NCCC[C@H]3O[C@@H](n4cnc5c(N)ncnc54)[C@H](O)[C@@H]3O)ccc2c1 [12g, Methyl 6-(3-(4-(3-(3-((2R,3S,4R,5R)-5-(6-Amino-9H-purin-9-yl)-3,4-dihydroxytetrahydrofuran-2-yl)propyl)guanidino)butyl)ureido)-4-hydroxy-2-naphthoate] | SI PRMT5 (Figure 5 heatmap) (PRMT4): 93 fold
